Measurements from BigSolDB 2.1.

[NH3+]C1CCCCC1.[S-]c1nc2ccccc2s1
solubility (mole fraction)
Conditions | 303.15 K | 308.15 K | 313.15 K | 318.15 K | 323.15 K | 328.15 K | 333.15 K | 338.15 K | 343.15 K | 348.15 K
in 1,4-dioxane | 0.000208 | 0.000291 | 0.000418 | 0.000608 | 0.000793 | 0.00105 | 0.00141 | 0.00169 | 0.00217 | 0.00266
in MIBK | 0.000389 | 0.000506 | 0.000672 | 0.00085 | 0.00111 | 0.00141 | 0.00177 | 0.00215 | 0.00252 | 0.00306
in toluene | 2e-05 | 4.26e-05 | 5.64e-05 | 6.78e-05 | 8.02e-05 | 0.000121 | 0.000175 | 0.00026 | 0.000344 | 0.000421
in water | 1.32e-05 | 1.95e-05 | 2.59e-05 | 3.24e-05 | 4e-05 | 5.4e-05 | 7.55e-05 | 8.97e-05 | 0.000124 | 0.000164
